# Key:
# [1] = tested on: myeloperoxidase (MPO) activity; assay: Carrageenan-induced arthritis model: MPO activity as marker of neutrophil infiltration; assay type: in vivo, mice; settings: 50 μl s.c. right hind paw; 5% carrageenan 18 hours later; measured 6 hours after carrageenan
# Experimental: Five mice (n=5) were used in each of 9 groups (Control, RIG, nRIG, Saline@Carr, RIG@Carr, nRIG@Carr, 4-amino-TEMPO@Carr, RNP^N@Carr, nRIG+4-amino-TEMPO@Carr).
# 50 μl each of nitroxide radical-containing polyion complex micelles for forming an RIG gel (RIG; molar ratio r=1:1, pH 6, 60 mg/ml), nitroxide radical-free polyion complex micelles for forming an nRIG gel (nRIG; molar ratio r=1:1, pH 6, 60 mg/ml), saline, a low-molecular-weight nitroxide radical compound solution (4-aminoTEMPO; 5.45 mg/ml), a nitroxide radical-containing polymer micelle solution (RNP^N; 60 mg/ml), and a solution of low-molecular-weight 4-aminoTEMPO physically mixed with nitroxide radical-free polyion complex micelles (n-RIG+4-aminoTEMPO; molar ratio r=1:1, pH 6, 60 mg/ml) was then injected subcutaneously into the right hind paws of mice. 18 hours later, 50 μl of 5% carrageenan buffer was injected subcutaneously into the right hind paws of the mice in the Saline@Carr, RIG@Carr, nRIG@Carr, 4-amino-TEMPO@Carr, RNP^N@Carr, and nRIG+4-aminoTEMPO@Carr groups (n=5). Nothing was administered to the Control group (n=5). […] The collected tissue of the mouse right hind paws was then homogenized, and the amount of inflammatory cytokines (TNF-α and IL-1β) and myeloperoxidase (MPO) activity as a marker of neutrophil infiltration were measured with an ELISA kit in the supernatant collected by centrifugation.
# [2] = Local retention of injectable gel, imaging by L-band electron spin resonance; settings: 70 μl s.c. into hind paw
# Experimental: Three mice were used in each group. 70 μl of a solution of the nitroxide radical-containing polyion complex micelles used in Test 1 (PMNT-b-PEG-b-PMNT to PAA molar ratio r=1:1 (RIG). pH 6, 60 mg/ml) was injected subcutaneously into the left hind paws of three mice. […] Local retention of nitroxide radicals in the mouse paws was imaged by L-band electron spin resonance (ESR) using mice immediately after administration.
smiles,measurement,setting,value
"CC1(C)CC(N)CC(C)(C)N1[O] [4-aminoTEMPO, 4-amino-TEMPO]",suppression of MPO activity caused by carrageenan,[1],not significantly suppressed
same,time after administration at which ESR signal disappeared from mouse paws,[2],≤ 30 min
